Experimental data from PubChem BioAssay AID2060883 (Molecular Pharmacology Branch, DTP, NCI, 2025).

Test system: 843782-103-R-J1-PDC complex spheroid viability
Experiment: Anticancer human tumor 843782-103-R-J1-PDC patient-derived lung adenocarcinoma cell line growth inhibition [RAS]
Conditions: for IC50: curve of first compound; for viability, T/C: stronger effect = lower value; active = viability on the fitted dose curve at most 10% of control; inactive = the rest
Summary of the method: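 Tumour cells grown as complex spheroids with HUVEC endothelial cells and mesenchymal stem cells, treated with RAS pathway inhibitor combinations. Each agent spans half-log steps from near clinical Cmax, or 10 microM where Cmax is unknown.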
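Also: viability read after seven days of compound exposure.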

CC(C)NCC(C(=O)N1CCN(c2ncnc3c2C(C)CC3O)CC1)c1ccc(Cl)cc1 (centres undefined) + CCn1c(-c2cccnc2C(C)OC)c2c3cc(ccc31)N1CCOC(CC(NC(=O)C(C(C)C)N(C)C(=O)C3(F)CCN(C(=O)C#CC(C)(C)N(C)C)CC3)C(=O)N3CCCC(N3)C(=O)OCC(C)(C)C2)C1
325 nM: IC50 (second compound 0.003 µM)
active: viability, T/C (second compound 0.000949 µM, first compound 3.16 µM) 10.8% | viability, T/C (second compound 0.000949 µM, first compound 10 µM) 4.86% | viability, T/C (second compound 0.003 µM, first compound 10 µM) 7.3% | viability, T/C (second compound 0.00949 µM, first compound 10 µM) 4.79% | viability, T/C (second compound 0.03 µM, first compound 10 µM) 6.84% | viability, T/C (second compound 0.0949 µM, first compound 10 µM) 5.05% | viability, T/C (second compound 0.3 µM, first compound 10 µM) 5.97%
287 nM: IC50 (second compound 0.000949 µM)
309 nM: IC50 (second compound 0.03 µM)
402 nM: IC50 (second compound 0.00949 µM)
inactive: viability, T/C (second compound 0.000949 µM, first compound 0.0316 µM) 74.5% | viability, T/C (second compound 0.000949 µM, first compound 0.1 µM) 68.8% | viability, T/C (second compound 0.000949 µM, first compound 0.316 µM) 48.5% | viability, T/C (second compound 0.000949 µM, first compound 1 µM) 19.6% | viability, T/C (second compound 0.003 µM, first compound 0.0316 µM) 74.1% | viability, T/C (second compound 0.003 µM, first compound 0.1 µM) 71.3% | viability, T/C (second compound 0.003 µM, first compound 0.316 µM) 47.5% | viability, T/C (second compound 0.003 µM, first compound 1 µM) 30% | viability, T/C (second compound 0.003 µM, first compound 3.16 µM) 12.4% | viability, T/C (second compound 0.00949 µM, first compound 0.0316 µM) 68.2% | viability, T/C (second compound 0.00949 µM, first compound 0.1 µM) 65.3% | viability, T/C (second compound 0.00949 µM, first compound 0.316 µM) 55.9% | viability, T/C (second compound 0.00949 µM, first compound 1 µM) 30% | viability, T/C (second compound 0.00949 µM, first compound 3.16 µM) 13.9% | viability, T/C (second compound 0.03 µM, first compound 0.0316 µM) 72.9% | viability, T/C (second compound 0.03 µM, first compound 0.1 µM) 66% | viability, T/C (second compound 0.03 µM, first compound 0.316 µM) 50.5% | viability, T/C (second compound 0.03 µM, first compound 1 µM) 24.8% | viability, T/C (second compound 0.03 µM, first compound 3.16 µM) 13.8% | viability, T/C (second compound 0.0949 µM, first compound 0.0316 µM) 70.8% | viability, T/C (second compound 0.0949 µM, first compound 0.1 µM) 66.3% | viability, T/C (second compound 0.0949 µM, first compound 0.316 µM) 56.9% | viability, T/C (second compound 0.0949 µM, first compound 1 µM) 27.1% | viability, T/C (second compound 0.0949 µM, first compound 3.16 µM) 11.5% | viability, T/C (second compound 0.3 µM, first compound 0.0316 µM) 63.4% | viability, T/C (second compound 0.3 µM, first compound 0.1 µM) 60% | viability, T/C (second compound 0.3 µM, first compound 0.316 µM) 39.8% | viability, T/C (second compound 0.3 µM, first compound 1 µM) 23.2% | viability, T/C (second compound 0.3 µM, first compound 3.16 µM) 11.3%
174 nM: IC50 (second compound 0.3 µM)
403 nM: IC50 (second compound 0.0949 µM)

CCc1c2c(nc3ccc(O)cc13)-c1cc3c(c(=O)n1C2)COC(=O)[C@]3(O)CC + CCn1c(-c2cccnc2C(C)OC)c2c3cc(ccc31)N1CCOC(CC(NC(=O)C(C(C)C)N(C)C(=O)C3(F)CCN(C(=O)C#CC(C)(C)N(C)C)CC3)C(=O)N3CCCC(N3)C(=O)OCC(C)(C)C2)C1
1.49 nM: IC50 (second compound 0.000949 µM)
inactive: viability, T/C (second compound 0.000949 µM, first compound 0.000949 µM) 67.3% | viability, T/C (second compound 0.000949 µM, first compound 0.003 µM) 23.5% | viability, T/C (second compound 0.003 µM, first compound 0.000949 µM) 63.3% | viability, T/C (second compound 0.003 µM, first compound 0.003 µM) 27% | viability, T/C (second compound 0.00949 µM, first compound 0.000949 µM) 59.1% | viability, T/C (second compound 0.00949 µM, first compound 0.003 µM) 22.9% | viability, T/C (second compound 0.03 µM, first compound 0.000949 µM) 59.7% | viability, T/C (second compound 0.03 µM, first compound 0.003 µM) 21.9% | viability, T/C (second compound 0.0949 µM, first compound 0.000949 µM) 68.9% | viability, T/C (second compound 0.0949 µM, first compound 0.003 µM) 18.6% | viability, T/C (second compound 0.3 µM, first compound 0.000949 µM) 59.3% | viability, T/C (second compound 0.3 µM, first compound 0.003 µM) 17.8%
1.27 nM: IC50 (second compound 0.03 µM)
1.46 nM: IC50 (second compound 0.0949 µM)
1.23 nM: IC50 (second compound 0.3 µM)
active: viability, T/C (second compound 0.000949 µM, first compound 0.00949 µM) 6.26% | viability, T/C (second compound 0.000949 µM, first compound 0.03 µM) 2.82% | viability, T/C (second compound 0.000949 µM, first compound 0.0949 µM) 1.64% | viability, T/C (second compound 0.000949 µM, first compound 0.3 µM) 1.49% | viability, T/C (second compound 0.003 µM, first compound 0.00949 µM) 5.6% | viability, T/C (second compound 0.003 µM, first compound 0.03 µM) 2.52% | viability, T/C (second compound 0.003 µM, first compound 0.0949 µM) 1.9% | viability, T/C (second compound 0.003 µM, first compound 0.3 µM) 1.58% | viability, T/C (second compound 0.00949 µM, first compound 0.00949 µM) 6.03% | viability, T/C (second compound 0.00949 µM, first compound 0.03 µM) 2.26% | viability, T/C (second compound 0.00949 µM, first compound 0.0949 µM) 1.84% | viability, T/C (second compound 0.00949 µM, first compound 0.3 µM) 2.05% | viability, T/C (second compound 0.03 µM, first compound 0.00949 µM) 3.99% | viability, T/C (second compound 0.03 µM, first compound 0.03 µM) 2.11% | viability, T/C (second compound 0.03 µM, first compound 0.0949 µM) 1.92% | viability, T/C (second compound 0.03 µM, first compound 0.3 µM) 1.55% | viability, T/C (second compound 0.0949 µM, first compound 0.00949 µM) 3.32% | viability, T/C (second compound 0.0949 µM, first compound 0.03 µM) 1.45% | viability, T/C (second compound 0.0949 µM, first compound 0.0949 µM) 1.1% | viability, T/C (second compound 0.0949 µM, first compound 0.3 µM) 1.93% | viability, T/C (second compound 0.3 µM, first compound 0.00949 µM) 3.68% | viability, T/C (second compound 0.3 µM, first compound 0.03 µM) 2.01% | viability, T/C (second compound 0.3 µM, first compound 0.0949 µM) 1.36% | viability, T/C (second compound 0.3 µM, first compound 0.3 µM) 1.25%
1.45 nM: IC50 (second compound 0.003 µM)
1.26 nM: IC50 (second compound 0.00949 µM)
